According to PubChem BioAssay (NCI):
Values joined by “and” are separate entries in the source; they are usually repeats but may differ in a detail not shown here. Equal values may be shown once.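 Cells were grown in 96-well plates and exposed to each compound for 48 hours at five concentrations; endpoints were interpolated linearly between bracketing concentrations, or set to the highest concentration if not reached. GI50 marks 50% less growth. The concentration for full growth arrest is given as TGI.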

Key:
Test in all cases: growth of human tumour cells (NCI), 48 h
COLO 205 colon = test system: COLO 205 colon
KM12 colon = test system: KM12 colon
LOX IMVI melanoma = test system: LOX IMVI melanoma
TK-10 renal = test system: TK-10 renal
SF-268 CNS = test system: SF-268 CNS
IGROV1 ovarian = test system: IGROV1 ovarian
OVCAR-4 ovarian = test system: OVCAR-4 ovarian
ACHN renal = test system: ACHN renal
HOP-92 NSCLC = test system: HOP-92 NSCLC
HL-60(TB) leukemia = test system: HL-60(TB) leukemia

Row | Structure (SMILES) | GI50 (COLO 205 colon) | TGI (COLO 205 colon) | GI50 (KM12 colon) | TGI (KM12 colon) | GI50 (LOX IMVI melanoma) | TGI (LOX IMVI melanoma) | GI50 (TK-10 renal) [µM] | TGI (TK-10 renal) | GI50 (SF-268 CNS) | TGI (SF-268 CNS) | GI50 (IGROV1 ovarian) | GI50 (OVCAR-4 ovarian) [µM] | TGI (OVCAR-4 ovarian) | GI50 (ACHN renal) [µM] | TGI (ACHN renal) | GI50 (HOP-92 NSCLC) [µM] | TGI (HOP-92 NSCLC) | GI50 (HL-60(TB) leukemia) [µM] | TGI (HL-60(TB) leukemia) | TGI (IGROV1 ovarian)
1 | O=C1c2ccccc2-c2c1c1ccccc1c(=O)n2CCCNCCCn1ccnc1 | 2.13 µM | 13.2 µM | 0.593 µM | 2.41 µM | 0.45 µM | 1.78 µM | 1.89 | 9.73 µM | 3.12 µM | 23.2 µM | 0.442 µM | 6.34 | 28.1 µM | 0.252 | 0.879 µM | 0.95 | 7.57 µM | 0.653 | 5.01 µM | –
2 | COc1cc(Cl)c2c3c(c(C(C)=O)oc13)CCC2 | – | > 100 µM | – | – | – | > 100 µM | – | > 100 µM | – | – | – | – | > 100 µM | – | > 100 µM | – | > 100 µM | – | > 100 µM | > 100 µM
3 | Cc1cc(C)c([O-])c(CN(C)CCN(C)Cc2cc(C)cc(C)c2[O-])c1.O=C([O-])c1cccc(C(=O)[O-])n1.[Ti+4] | 2.4 µM | 5.01 µM | 3.36 µM | > 100 µM | – | – | 1.71 | 5.47 µM | 3.91 µM | > 100 µM | 3.2 µM | 2.87 | > 100 µM | 2.43 | > 100 µM | 2.51 | 6.47 µM | 1.69 | 5.56 µM | > 100 µM
4 | CC(=O)c1cccc(N2COC(C)(C)c3nc4ccccc4n3C2)c1 | – | > 100 µM | – | > 100 µM | – | > 100 µM | – | > 100 µM | – | > 100 µM | – | – | > 100 µM | – | > 100 µM | – | > 100 µM | – | > 100 µM | > 100 µM
5 | O=C1Nc2ccc(C(=O)c3ccco3)cc2/C1=C/c1cc(Cl)c(O)c(Cl)c1 | 8.01 µM | > 25 µM | 3.62 µM | > 17.7 µM | 1.78 µM | 15.3 µM | 6.53 | > 23.9 µM | 5.94 µM | > 25 µM | 3.36 µM | 6.95 | > 25 µM | 2.14 | 11.1 µM | 3.2 | 14.4 µM | 6.93 | > 21.1 µM | > 20.7 µM
6 | CCOC(=O)C(Cc1c[nH]c2ccc(N)cc12)(NC(C)=O)C(=O)OCC | 849 µM | > 1000 µM | > 1000 µM | > 1000 µM | > 1000 µM | > 1000 µM | > 1000 | > 1000 µM | > 1000 µM | > 1000 µM | > 1000 µM | > 1000 | > 1000 µM | > 1000 | > 1000 µM | > 1000 | > 1000 µM | 758 | > 1000 µM | > 1000 µM
7 | Cc1cc(I)cc(CN(C)CCCN2CCSCC2)c1O | 25.2 µM | 55.3 µM | 37.2 µM | > 100 µM | 17.2 µM | 33.5 µM | 33.3 | 89.3 µM | 28.4 µM | > 100 µM | 33.3 µM | 44.7 | > 100 µM | 41 | > 100 µM | 14.6 | 47.4 µM | 18.8 | 36.6 µM | > 100 µM
8 | COC(=O)CCc1cc(OC)c2c(c1)C(C(=O)OC)C(c1ccc(OC)c(OC)c1)O2 (centres undefined) | > 100 µM and 21.6 µM | > 100 µM | > 100 µM and 19.6 µM | > 100 µM | > 100 µM and 12.1 µM | > 100 µM | – | > 100 µM | > 100 µM and 37.9 µM | > 100 µM | > 100 µM and 21.5 µM | – | > 100 µM | – | > 100 µM | – | > 100 µM | – | > 100 µM | > 100 µM
9 | CN[C@@H](C)C(=O)N[C@H](C(=O)N1CCC[C@H]1C(=O)N[C@H]1c2ccccc2C[C@H]1OCC#CC#CCO[C@@H]1Cc2ccccc2[C@@H]1NC(=O)[C@@H]1CCCN1C(=O)[C@@H](NC(=O)[C@H](C)NC)C1CCCCC1)C1CCCCC1 | 1.78 µM | 3.55 µM | 2.66 µM | 7.96 µM | 1.7 µM | 3.38 µM | 19.7 | 35.6 µM | 5.58 µM | 13.5 µM | 6.41 µM | < 0.01 | 10.9 µM | 14.4 | 28.5 µM | 0.479 | 2.48 µM | < 0.01 | 0.252 µM | 21 µM
10 | CCN(CC)CCCC(C)Nc1c2ccc(Cl)cc2nc2ccc(OC)cc12 (centres undefined) | – | 3.11 µM and 7.34 µM | 2.39 µM | 7.83 µM and 5.14 µM | 1.52 µM | 3.56 µM and 2.57 µM | – | 11.8 µM and 13 µM | – | 5.03 µM and 7.68 µM | 3.21 µM | – | 5.05 µM and 3.74 µM | 1.42 | 5.15 µM and 9.77 µM | 0.811 | 3.17 µM and 2.53 µM | 1.81 | 9.64 µM and 10.7 µM | 13.2 µM and 5.49 µM
11 | CC(C)c1ccc(C(=O)Nc2nc3ccc(O)cc3s2)cc1 | 3.58 µM | > 100 µM | 0.262 µM | > 100 µM | 0.2 µM | 29.5 µM | 8.98 | > 100 µM | 4.06 µM | > 100 µM | 0.361 µM | 0.873 | 80.2 µM | 0.304 | > 100 µM | 5.18 | 55 µM | 0.481 | 20.2 µM | > 100 µM
12 | CSc1ccc(C2=NN(C(=O)c3ccc(F)cc3)C(c3ccc(F)cc3)C2)cc1 (centres undefined) | 12.3 µM | 25.6 µM | 2.2 µM | 5.83 µM | 3.62 µM | 12.3 µM | 10.4 | 22.8 µM | 2.69 µM | 13.4 µM | 4.91 µM | 14.9 | 30.3 µM | 12.7 | 25.4 µM | 9.72 | 24.6 µM | 12 | 35.3 µM | 18.8 µM
13 | COc1cc(C(=O)/C(C)=C/c2c[nH]c3ccccc23)cc(OC)c1OC | 0.00354 µM | 0.0159 µM | 0.00359 µM | – | 0.00468 µM | 11.5 µM | – | 12.4 µM | 0.00544 µM | 10.6 µM | 0.00566 µM | 0.0249 | > 100 µM | 0.00619 | > 100 µM | 0.074 | 2.33 µM | 0.00228 | 0.00652 µM | > 100 µM
